# Reference: PMC9032516, “Targeting Zika Virus with New Brain- and Placenta-Crossing Peptide–Porphyrin Conjugates” (Pharmaceutics, 2022)
# Structures can show the parent of a compound that is named as a salt. Where two headings read alike, the source gives them in different places. No end group written: not given here.
# Legend:
# [1] = system: HBEC-5i human brain endothelia monolayer (in vitro BBB model); assay: In vitro BBB integrity assay (FD4 permeability after incubation); assay type: cell-based
# Experimental: After 24 h incubation with PPCs, cells were washed with PBS and DMEM:F12 medium without phenol red. […] Three independent replicates were performed.
# ZIKV^BR = assay: ZIKV inactivation assay (plaque assay on Vero cells); assay type: cell-based, Zika virus; conditions: 10^5 PFU ZIKV^BR pre-treated 1 h at 37 °C in the dark with 0.01–50 µM, titrated by plaque assay on Vero cells, three independent replicates
# Experimental: After infection, cells were cultured for 7 days.
# Three independent replicates were performed.
# HIV = system: HIV; design: method as in 2 sources, one per row (each row's own in cited_ref): ref [24] as printed in Table 2, ref [2] in supplement ||| ref 23 = [23]; PMID 34033716; doi:10.1021/acs.bioconjchem.1c00123; 23. Mendonça D.A. Bakker M. Cruz-Oliveira C. Neves V. Jiménez M.A. Defaus S. Cavaco M. Veiga A.S. Cadima-Couto I. Castanho M.A.R.B. Penetrating the Blood-Brain Barrier with New Peptide–Porphyrin Conju; conditions: in vitro; values marked a; ref [24] as printed in Table 2, ref [2] in supplement; cited from earlier work
# Serum stability = assay type: in vitro ADME; conditions: human serum diluted 1:1 (v/v) with HEPES buffer, 0.05 mM in 1:1 human serum / HEPES buffer (10 mM, NaCl 150 mM, pH 7.8), 37 °C, methanol precipitation, three independent replicates, read-out: t1/2 in human serum (converted)
# Experimental: Next, 600 µL of conjugate/peptide solution were mixed (1:1 v/v) with 600 µL of human serum, to a 0.05 mM final concentration. The mixture was incubated at 37 °C and, at various time points, 50 µL (in triplicate) were taken and precipitated with 200 µL cold methanol. The samples were centrifuged at 13,000 rpm, 10 min, +4 °C. Afterwards, 50 µL of each supernatant were injected on an LC-20AD instrument (Shimadzu) equipped with a Luna C18 column (4.6 mm × 50 mm, 3 µm, Phenomenex, Torrance, CA, USA) and analysed using a 0–95% linear gradient of MeCN into 0.1% TFA in H2O over 15 min with 1 mL/min flow rate. PDA detection at 220 nm and 401 nm was used and the half-life times were calculated by peak area integration at 401 nm, the λmax of MP and PP. Controls included blank serum (25 µL each of 1:1 v/v serum + HEPES buffer, then precipitation with 200 µL cold methanol), untreated conjugate/peptide (25 µL of 0.1 mM stock in HEPES buffer + 25 µL HEPES buffer, then precipitation with 200 µL cold methanol), and a zero-time sample (200 µL cold methanol + 25 µL serum + 25 µL 0.1 mM conjugate/peptide stock); the conjugate/peptide was added last to avoid any contact with protease. Controls were analysed by LC and LC-MS as above. Three independent replicates were performed.
molecule,measurement,setting,value
O=C(O)CN(CCOCCOCCN(CC(=O)O)CC(=O)O)CC(=O)O [EGTA],"FD4 permeability post-translocation (Basolateral Content), BBB",[1],29.6%
"CCC1=C(C)c2cc3[nH]c(cc4[nH]c(cc5nc(cc1n2)C(C)=C5CC)c(C)c4CCC(=O)O)c(CCC(=O)O)c3C [MP, Mesoporphyrin IX dihydrochloride]",IC50,ZIKV^BR,> 50 µM
same,IC50,HIV,> 50 µM
"C=CC1=C(C)c2cc3[nH]c(cc4nc(cc5[nH]c(cc1n2)c(C)c5CCC(=O)O)C(CCC(=O)O)=C4C)c(C)c3C=C [PP, protoporphyrin IX]","FD4 permeability post-translocation (Basolateral Content), BBB","[1]; HBEC-5i monolayer after 24 h incubation with 10 µM compound, 4 kDa FITC-dextran apical, 2 h, fluorescence, three independent replicates, black bars Figure 1B, control (cells only) 10.3%",24.7%
same,"increase in FD4 permeability over control values, BBB","[1]; HBEC-5i monolayer, 24.7% versus control 10.3%",2.5 fold
same,IC50,HIV,> 50 µM
"SGTQEEY-NH2 [P5, SGTQEEY-amide]",half-life at 0.05 mM,"Serum stability; over 24 h, HPLC peak area (401 nm for porphyrins)",2.2 h
VQQLTKRFSL-NH2 [P1],half-life at 0.05 mM,Serum stability; HPLC,0.733 h
